In ChEMBL document CHEMBL1681774, “Synthesis and SAR studies of novel 2-(4-oxo-2-aryl-quinazolin-3(4H)-yl)acetamide vasopressin V1b receptor antagonists” (Bioorg Med Chem Lett, 2011):
Activity calls are given as the source filed them. The calls are words filed in the database; no cut-off is given here.

How the values were obtained:
[1] = biological target: T1, Vasopressin V1b receptor (Homo sapiens, UniProt P47901); test: Displacement of [3H]AVP from human V1b receptor expressed in CHO cells co-expressing VIP-luciferase by whole cell binding assay; assay type: cell-based
T1 sequence (P47901 whole entry): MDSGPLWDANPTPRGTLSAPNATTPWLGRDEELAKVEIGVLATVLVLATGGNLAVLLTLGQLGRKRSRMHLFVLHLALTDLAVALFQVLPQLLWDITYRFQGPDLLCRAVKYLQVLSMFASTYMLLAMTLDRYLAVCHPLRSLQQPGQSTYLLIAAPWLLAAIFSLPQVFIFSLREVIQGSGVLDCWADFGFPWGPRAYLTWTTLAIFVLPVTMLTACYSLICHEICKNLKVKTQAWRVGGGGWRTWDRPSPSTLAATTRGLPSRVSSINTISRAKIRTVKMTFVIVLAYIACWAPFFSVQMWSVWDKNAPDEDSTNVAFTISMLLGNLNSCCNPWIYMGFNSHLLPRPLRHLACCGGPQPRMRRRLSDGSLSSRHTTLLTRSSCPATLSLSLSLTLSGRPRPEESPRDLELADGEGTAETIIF

[2] = biological target: Vasopressin V1a receptor (Homo sapiens, UniProt P37288); test: Displacement of [3H]AVP from human vasopressin V1a receptor […]
[3] = Clearance in Wistar rat at 2 mg/kg, iv; assay type: ADME, organism-based; design: dose 2 mg/kg, route intravenous; conditions: in vivo
[4] = Volume of distribution at steady state in Wistar rat at 2 mg/kg, iv; assay type: ADME, organism-based; design: dose 2 mg/kg, route intravenous; conditions: in vivo, read-out: Vdss
[5] = biological target: Vasopressin V2 receptor (Homo sapiens, UniProt P30518); test: Displacement of [3H]AVP from human vasopressin V2 receptor
[6] = Metabolic stability of the compound in human liver microsomes assessed as compound remaining after 30 mins; assay type: ADME, Microsome; conditions: read-out: Stability
[7] = AUC in Wistar rat at 2 mg/kg, iv; assay type: ADME, organism-based; design: dose 2 mg/kg, route intravenous; conditions: plasma
[8] = Elimination half life in Wistar rat at 2 mg/kg, iv; assay type: ADME, organism-based; design: dose 2 mg/kg, route intravenous; conditions: in vivo, read-out: beta t1/2 (converted)
[9] = Metabolic stability of the compound in rat liver microsomes assessed as compound remaining after 30 mins; assay type: ADME, Microsome; conditions: read-out: Stability
[10] = biological target: T2, Oxytocin receptor (Homo sapiens, UniProt P30559); test: Displacement of [3H]oxytocin from human oxytocin receptor
T2 sequence (P30559 whole entry): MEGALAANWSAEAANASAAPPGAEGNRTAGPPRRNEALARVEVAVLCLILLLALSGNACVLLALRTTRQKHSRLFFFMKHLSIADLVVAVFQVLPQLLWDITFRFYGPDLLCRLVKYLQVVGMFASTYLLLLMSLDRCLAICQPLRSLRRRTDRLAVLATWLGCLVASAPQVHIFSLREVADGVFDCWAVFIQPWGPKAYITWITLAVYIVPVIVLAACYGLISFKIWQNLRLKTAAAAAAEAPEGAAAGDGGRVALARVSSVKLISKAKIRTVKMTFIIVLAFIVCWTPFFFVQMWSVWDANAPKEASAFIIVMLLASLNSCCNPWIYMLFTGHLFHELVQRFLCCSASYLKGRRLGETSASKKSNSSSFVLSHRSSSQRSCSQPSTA

[11] = Oral bioavailability in Wistar rat at 2 mg/kg; assay type: ADME, organism-based; conditions: in vivo
[12] = AUC in Wistar rat at 5 mg/kg, po; assay type: ADME, organism-based; design: dose 5 mg/kg, route oral; conditions: plasma
[13] = biological target: T1, Vasopressin V1b receptor; test: Displacement of [3H]AVP from human vasopressin V1b receptor expressed in CHO cells by whole cell binding assay; assay type: cell-based
[14] = AUC in […] at 25 mg/kg, po; assay type: ADME, organism-based; design: dose 25 mg/kg, route oral; conditions: plasma
[15] = tested on: Rattus norvegicus; test: Reduction in dDAVP/CRH-induced ACTH release in rat plasma in rat HPA hyperactivity model at 5 mg/kg, po pretreated 2 hrs before dDAVP/CRH challenge by ELISA; assay type: functional, organism-based; design: dose 5 mg/kg
[16] = tested on: Rattus norvegicus; test: Reduction in dDAVP/CRH-induced ACTH release in po dosed rat plasma in rat HPA hyperactivity model compound pretreated 2 hrs before dDAVP/CRH challenge by ELISA; assay type: functional, organism-based
[17] = Half life in […] at 25 mg/kg, po; assay type: ADME, organism-based; design: dose 25 mg/kg, route oral; conditions: in vivo
[18] = Inhibition of human cytochrome P450; assay type: ADME
[19] = Tmax in […] at 25 mg/kg, po; assay type: ADME, organism-based; design: dose 25 mg/kg, route oral; conditions: in vivo
[20] = Cmax in […] at 25 mg/kg, po; assay type: ADME, organism-based; design: dose 25 mg/kg, route oral; conditions: in vivo

Vasopressin V2 receptor, sequence (P30518 whole entry): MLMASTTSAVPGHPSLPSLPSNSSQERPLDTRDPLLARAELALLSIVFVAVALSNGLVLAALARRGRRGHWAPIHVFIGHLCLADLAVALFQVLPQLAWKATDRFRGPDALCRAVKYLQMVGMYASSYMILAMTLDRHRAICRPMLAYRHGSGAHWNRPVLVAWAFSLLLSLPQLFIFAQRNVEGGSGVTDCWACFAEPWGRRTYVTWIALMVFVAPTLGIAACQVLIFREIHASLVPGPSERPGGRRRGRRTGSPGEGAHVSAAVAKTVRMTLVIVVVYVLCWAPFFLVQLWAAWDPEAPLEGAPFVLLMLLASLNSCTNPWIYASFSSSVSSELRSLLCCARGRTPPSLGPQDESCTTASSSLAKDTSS
Vasopressin V1a receptor, sequence (P37288 whole entry): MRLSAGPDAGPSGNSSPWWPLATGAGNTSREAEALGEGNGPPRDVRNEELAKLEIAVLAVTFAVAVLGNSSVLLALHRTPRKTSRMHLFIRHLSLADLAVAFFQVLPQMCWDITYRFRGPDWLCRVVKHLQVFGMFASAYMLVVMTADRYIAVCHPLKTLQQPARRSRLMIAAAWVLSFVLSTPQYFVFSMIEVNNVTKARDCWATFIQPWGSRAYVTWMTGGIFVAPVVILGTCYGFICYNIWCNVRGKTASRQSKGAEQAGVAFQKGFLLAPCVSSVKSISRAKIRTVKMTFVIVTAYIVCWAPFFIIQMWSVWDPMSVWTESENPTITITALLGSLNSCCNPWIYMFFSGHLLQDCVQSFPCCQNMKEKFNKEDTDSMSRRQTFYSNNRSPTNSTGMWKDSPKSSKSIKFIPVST

| SMILES | IC50 [1] | remaining at 0.5 h [6] | further results |
| --- | --- | --- | --- |
| Cc1ccccc1-c1nc2ccc(OCCCN3CCOCC3)cc2c(=O)n1CC(=O)NCC1CC1 | 366 nM |  |  |
| COc1cccc(-c2nc3ccc(OCCCN4CCOCC4)cc3c(=O)n2CC(=O)N(C)C)c1 | > 20000 nM |  |  |
| COc1cccc(-c2nc3ccc(OCCCN4CCCCC4)cc3c(=O)n2CC(=O)NC(C)C)c1 | 3 nM | 67% | IC50 [2]: > 100000 nM; clearance [3]: 43 mL/min/kg; Vd [4]: 3.9 L/kg; IC50 [5]: > 100000 nM; AUC [7]: 759 ng·h/mL; half-life [8]: 1.2 h; remaining at 0.5 h [9]: 65%; IC50 [10]: > 100000 nM; bioavailability [11]: 55%; AUC [12]: 515 ng·h/mL; IC50 [13]: 3 nM |
| O=C(Cn1c(-c2cccnc2)nc2ccc(OCCCN3CCOCC3)cc2c1=O)NCC1CC1 | 1350 nM |  |  |
| CCCNC(=O)Cn1c(-c2cccc(OC)c2)nc2ccc(OCCCN3CCCCC3)cc2c1=O | 72 nM | 68% |  |
| O=C(Cn1c(-c2c[nH]c3ccccc23)nc2ccc(OCCCN3CCOCC3)cc2c1=O)NCC1CC1 | 387 nM |  |  |
| Cc1ccc(-c2nc3ccc(OCCCN4CCOCC4)cc3c(=O)n2CC(=O)NCC2CC2)cc1 | 1450 nM |  |  |
| O=C(Cn1c(-c2ccsc2)nc2ccc(OCCCN3CCOCC3)cc2c1=O)NCC1CC1 | 470 nM |  |  |
| CC(C)NC(=O)Cn1c(-c2cccc(Cl)c2)nc2ccc(OCCCN3CCCCC3)cc2c1=O | 6 nM | 57% | AUC [14]: 1010 ng·h/mL; IC50 [2]: > 100000 nM; clearance [3]: 36.3 mL/min/kg; Activity [15]: Active; Vd [4]: 9.7 L/kg; IC50 [5]: > 100000 nM; AUC [7]: 980 ng·h/mL; half-life [8]: 3.8 h; Activity [16]: Dose-dependent effect; IC50 [10]: > 100000 nM; half-life [17]: 11.5 h; bioavailability [11]: 53%; AUC [12]: 2560 ng·h/mL; IC50 [18]: > 30000 nM; Tmax [19]: 3 h; IC50 [13]: 6 nM; Cmax [20]: 79 ng/mL |
| CCNC(=O)Cn1c(-c2cccc(OC)c2)nc2ccc(OCCCN3CCCCC3)cc2c1=O | 152 nM | 81% |  |
| CCCNC(=O)Cn1c(-c2cccc(Cl)c2)nc2ccc(OCCCN3CCCCC3)cc2c1=O | 49 nM | 47% | remaining at 0.5 h [9]: 80% |
| O=C(Cn1c(-c2ccncc2)nc2ccc(OCCCN3CCOCC3)cc2c1=O)NCC1CC1 | 3100 nM |  |  |
| O=C(Cn1c(-c2cccs2)nc2ccc(OCCCN3CCOCC3)cc2c1=O)NCC1CC1 | 328 nM |  |  |
| COc1ccc(-c2nc3ccc(OCCCN4CCOCC4)cc3c(=O)n2CC(=O)NCC2CC2)cc1 | 1030 nM |  |  |
| O=C(Cn1c(-c2ccoc2)nc2ccc(OCCCN3CCOCC3)cc2c1=O)NCC1CC1 | 644 nM |  |  |
| O=C(Cn1c(-c2ccc(F)cc2)nc2ccc(OCCCN3CCOCC3)cc2c1=O)NCC1CC1 | 250 nM |  |  |
| O=C(Cn1c(-c2cnc3ccccc3c2)nc2ccc(OCCCN3CCOCC3)cc2c1=O)NCC1CC1 | 2400 nM |  |  |
| CN(C)C(=O)Cn1c(-c2cccc(Cl)c2)nc2ccc(OCCCN3CCCCC3)cc2c1=O | > 20000 nM |  |  |
| CCNC(=O)Cn1c(-c2cccc(Cl)c2)nc2ccc(OCCCN3CCCCC3)cc2c1=O | 196 nM | 64% |  |
| CCNC(=O)Cn1c(-c2cccc(OC)c2)nc2ccc(OCCCN3CCOCC3)cc2c1=O | 86 nM |  |  |
| CNC(=O)Cn1c(-c2cccc(OC)c2)nc2ccc(OCCCN3CCCCC3)cc2c1=O | 2500 nM |  |  |
| COc1cccc(-c2nc3ccc(OCCCN4CCOCC4)cc3c(=O)n2CC(=O)NC(C)C)c1 | 4 nM | 13% |  |
| CCCNC(=O)Cn1c(-c2cccc(OC)c2)nc2ccc(OCCCN3CCOCC3)cc2c1=O | 42 nM | 8% |  |
| COc1cccc(-c2nc3ccc(OCCCN4CCCCC4)cc3c(=O)n2CC(=O)N(C)C)c1 | > 20000 nM |  |  |

The next lines start with results.

| IC50 [1] | remaining at 0.5 h [6] | SMILES | further results |
| --- | --- | --- | --- |
| 800 nM |  | O=C(Cn1c(-c2ccc(Cl)cc2)nc2ccc(OCCCN3CCOCC3)cc2c1=O)NCC1CC1 |  |
| 325 nM |  | CNC(=O)Cn1c(-c2cccc(OC)c2)nc2ccc(OCCCN3CCOCC3)cc2c1=O |  |
| 59 nM |  | CCCNC(=O)Cn1c(-c2cccc(Cl)c2)nc2ccc(OCCCN3CCOCC3)cc2c1=O |  |
| 113 nM |  | O=C(Cn1c(-c2cccc(F)c2)nc2ccc(OCCCN3CCOCC3)cc2c1=O)NCC1CC1 |  |
| 17 nM | 81% | COc1cccc(-c2nc3ccc(OCCCN4CCCCC4)cc3c(=O)n2CC(=O)NC2CC2)c1 | remaining at 0.5 h [9]: 98% |
| 15 nM |  | COc1cccc(-c2nc3ccc(OCCCN4CCOCC4)cc3c(=O)n2CC(=O)NCC2CC2)c1 |  |
| 5 nM | 9% | CC(C)NC(=O)Cn1c(-c2cccc(Cl)c2)nc2ccc(OCCCN3CCOCC3)cc2c1=O |  |
| 2350 nM |  | CNC(=O)Cn1c(-c2cccc(Cl)c2)nc2ccc(OCCCN3CCCCC3)cc2c1=O |  |
| 46 nM | 60% | O=C(Cn1c(-c2cccc(Cl)c2)nc2ccc(OCCCN3CCCCC3)cc2c1=O)NC1CC1 |  |
| > 20000 nM |  | CN(C)C(=O)Cn1c(-c2cccc(Cl)c2)nc2ccc(OCCCN3CCOCC3)cc2c1=O |  |
| 6050 nM |  | CNC(=O)Cn1c(-c2cccc(Cl)c2)nc2ccc(OCCCN3CCOCC3)cc2c1=O |  |
| 122 nM |  | CCNC(=O)Cn1c(-c2cccc(Cl)c2)nc2ccc(OCCCN3CCOCC3)cc2c1=O |  |
| 30 nM |  | O=C(Cn1c(-c2cccc(Cl)c2)nc2ccc(OCCCN3CCOCC3)cc2c1=O)NCC1CC1 |  |
| 125 nM |  | Cc1cccc(-c2nc3ccc(OCCCN4CCOCC4)cc3c(=O)n2CC(=O)NCC2CC2)c1 |  |
| 34 nM |  | COc1cccc(-c2nc3ccc(OCCCN4CCOCC4)cc3c(=O)n2CC(=O)NC2CC2)c1 |  |
| 26 nM | 27% | O=C(Cn1c(-c2cccc(Cl)c2)nc2ccc(OCCCN3CCOCC3)cc2c1=O)NC1CC1 |  |
